“And” between values parts separate entries of the source, which are not always exact repeats. Equal entries are not always repeated.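 Tested at 5 concentrations; 48 h exposure; 96-well plates; endpoints linearly interpolated, else capped at highest concentration. GI50 is the concentration that inhibits growth by half. At the TGI there is no net growth.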
Tests used:
Experiment in all cases: NCI tumour cell line growth inhibition, 48 h
[1] = system: HOP-18 NSCLC
[2] = system: KM20L2 colon
[3] = system: SNB-78 CNS
[4] = system: DLD-1 colon
[5] = system: M19-MEL melanoma
[6] = system: MDA-N
[7] = system: DMS 114 small cell lung
[8] = system: RXF-631 renal
[9] = system: P388 leukemia
[10] = system: P388/ADR leukemia
[11] = system: SN12K1 renal

Row | SMILES | TGI [1] [µM] | TGI [2] | TGI [3] | TGI [4] [µM] | TGI [5] [µM] | TGI [6] | TGI [7] | TGI [8] | further results
1 | C=C(C[N+](C)(C)C)N/N=C/c1oc(-c2ccc(OC)c(OC)c2)c(-c2ccc(OC)c(OC)c2)c1[N+](=O)[O-] | 60.4 | > 100 µM | > 100 µM | 46.9 | 29.3 |  |  |  | 
2 | N=C(N)SCC(=O)O |  |  |  |  |  | > 100 µM |  |  | 
3 | BrC(Br)([P+](c1ccccc1)(c1ccccc1)c1ccccc1)[P+](c1ccccc1)(c1ccccc1)c1ccccc1 | > 100 | 86.2 µM | 90.1 µM | 40.6 | 38.4 |  | 30.3 µM |  | 
4 | COC(=O)C1=C(C(=O)OC)N(C(C)C)[C@H]2C(C(=O)OC)=C(C(=O)OC)N(C(C)C)[C@@H]12 | > 100 | > 100 µM | > 100 µM | > 100 | > 100 |  | > 100 µM | > 100 µM | 
5 | O=c1ncccn1C1OC(CO)C(O)C1F (configuration not stated) | > 100 | > 100 µM | > 100 µM | > 100 | > 100 |  | > 100 µM | > 100 µM | GI50 [4]: > 100 µM
6 | COc1cc2c3c(c1OC)/C(=N/OS(=O)(=O)c1ccc(C)cc1)CC3N(S(=O)(=O)c1ccc(C)cc1)CC2 (configuration not stated) | > 100 | > 100 µM | > 100 µM | > 100 | > 100 |  | > 100 µM | > 100 µM | 
7 | O=C1c2c(O)ccc(O)c2C(=O)c2c(NCCNCCO)ccc(NCCNCCO)c21 | 1.67 | 8.09 µM | 1.66 µM | 4.87 | 0.925 | 1.48 µM and 1.66 µM | 0.263 µM |  | TGI [9]: 0.0821 µM; TGI [10]: 6 µM; TGI [11]: 0.305 µM
8 | C1=CC=C2NCCSCCNC3=CC=CC=CC3=NCCSCCN=C2C=C1 | > 100 | > 100 µM | > 100 µM | > 100 | > 100 |  | > 100 µM |  | 
9 | C/C(N=NC(=S)N1CCCCCC1)=C1\C=CC=CN1O | > 92.9 | > 100 µM | > 100 µM | > 100 | 59.3 | > 100 µM | 3.45 µM | > 100 µM | 
10 | CCOC(=O)c1cc(C(=O)O)c(=O)n2c1[nH]c1ccccc12 | > 100 | > 100 µM | > 100 µM | > 100 | > 100 |  | > 100 µM | > 100 µM | 
11 | CCCC/C=C1\CCC(CN2CCCC2)C1=O (configuration not stated) |  | 28.7 µM | 57.2 µM | 12.8 | 33.5 |  | 31.8 µM | 32.4 µM | 
12 | O=C1Nc2ccc(Br)cc2C1=Nc1ccc(Cl)cc1 |  |  |  |  |  | 23.5 µM |  |  | 
13 | Cc1ccc(N2C(=O)/C(=C3\Sc4c(nc(C)n(C)c4=O)N3c3ccccc3)SC2=S)cc1 |  | > 100 µM | > 100 µM |  | > 100 |  | 95.1 µM |  | 
14 | Cc1nnc(N=Nc2c(O)[nH]c3ccccc23)[nH]c1=O |  |  |  |  |  | > 100 µM |  |  | 
15 | CCC1(Cl)C(=O)NC(=O)N(C2CC(O)C(CO)O2)C1N=[N+]=[N-] (configuration not stated) |  | > 100 µM | > 100 µM | > 100 | > 100 |  | > 100 µM | > 100 µM | 
16 | COc1cc2c(c(OC)c1OC)-c1ccc(SC)c(=O)cc1[C@@H](NC(=O)c1ccc(F)cc1)CC2 |  | 0.0427 µM and < 0.01 µM | > 100 µM | > 100 | > 100 |  | 0.0636 µM and < 0.01 µM |  | GI50 [2]: < 0.01 µM; GI50 [3]: < 0.01 µM; GI50 [7]: 0.0267 µM and < 0.01 µM; GI50 [4]: < 0.01 µM; GI50 [5]: < 0.01 µM
17 | C=C1c2ccccc2N(S(=O)(=O)c2ccc(C)cc2)C12CCCCC2 | > 100 | > 100 µM |  | > 100 | > 100 |  | > 100 µM |  | 
18 | CC(C)(C)c1cc(C(=O)O)c(C(c2ccccc2)c2ccccc2C(=O)O)c(C(=O)O)c1 (configuration not stated) | > 100 | > 100 µM | > 100 µM | > 100 |  |  | > 100 µM |  | 
19 | O=C1[C@H]2ON(c3ccccc3)C(c3cccc([N+](=O)[O-])c3)[C@H]2C(=O)N1c1ccc(Cc2ccc(N3C(=O)[C@@H]4ON(c5ccccc5)C(c5cccc([N+](=O)[O-])c5)[C@@H]4C3=O)cc2)cc1 (some centres not stated) | > 100 | > 100 µM | > 100 µM | > 100 | > 100 |  | > 100 µM |  | 

Row | SMILES | TGI [1] [µM] | TGI [2] | TGI [3] | TGI [4] [µM] | TGI [5] [µM] | TGI [6] | TGI [7] | TGI [8] | further results
20 | O=C1Cc2ccccc2CCc2ccccc21 | > 100 | > 100 µM | > 100 µM | > 100 | > 100 |  | > 100 µM |  | 
21 | O=C(NOC(=O)c1ccc([N+](=O)[O-])cc1)c1ccc(Cl)cc1 | 89.7 | > 100 µM | 65.3 µM | > 100 | > 100 |  | > 100 µM | > 100 µM | 
22 | COC(=O)Cc1cc(=O)oc2c1C(=O)CCC2 |  | > 100 µM | > 100 µM | > 100 | > 100 |  | > 100 µM |  | 
23 | COc1cc(-c2nn3c(=O)n(-c4ccc(Cl)cc4)c(=O)nc3s2)cc(OC)c1OC | > 100 | > 100 µM | 50 µM and > 100 µM | > 100 | > 100 |  |  | 50 µM and > 100 µM | GI50 [2]: > 50 µM; GI50 [3]: 8.88 µM; GI50 [4]: > 50 µM; GI50 [5]: > 50 µM
24 | C=C[C@@]1(C)CC(=O)[C@]2(O)[C@@]3(C)[C@@H](O)CCC(C)(C)[C@@H]3[C@H](O)[C@@H](OC(C)=O)[C@@]2(C)O1 |  |  |  |  |  | > 100 µM |  |  | 
25 | Nc1ccc2c(SCC(=O)Nc3ccccc3-c3ccccc3NC(=O)CSc3c4ccccc4nc4cc(N)ccc34)c3ccccc3nc2c1 | 68.8 | > 93.5 µM | > 100 µM | 38.4 | 70.5 | > 69.5 µM | 56.2 µM | > 100 µM | 
26 | O=C1OC(c2ccc(Cl)c3ccccc23)c2ccccc21 (configuration not stated) | > 100 | > 100 µM | > 100 µM |  | > 100 |  | > 100 µM | > 100 µM | 
27 | COc1cc(/C=C2/C(=O)N(C(=O)c3ccccc3O)N=C2C)ccc1O |  | > 100 µM |  | > 100 | > 100 | > 100 µM | 7.73 µM |  | 
28 | C(/C=C/N1CCCC1)=C\c1nc(N2CCCC2)c2ccccc2n1 | 30.3 | 51.7 µM | 43.6 µM | 37.1 | 32.2 |  | 33.2 µM | 41.3 µM | 
29 | C=C1C(=O)C23CC1CCC2C12CO[C@@]3(O)[C@@H](O)C1C(C)(C)C=CC2=O (some centres not stated) | 2.2 | 4.39 µM | 2.23 µM | 2.22 | 1.72 | 7.71 µM |  | 2.33 µM | 
30 | CC12O[Te]34OC1(C)C(C)(O3)C2(C)O4 | 32 | 87.5 µM | 65.9 µM | 30.4 | 25.5 |  | 25.7 µM |  | 
31 | Cc1cc(C)c2nccc(NCCCN(C)C)c2c1[N+](=O)[O-] |  |  |  |  |  | > 100 µM |  |  | 
32 | O=C(O)C(O)c1ccc(F)cc1 (configuration not stated) |  |  |  |  |  | > 100 µM |  |  | 
33 | Nc1nc(Cl)cc(NCCCCCCNc2cc(Cl)nc(N)n2)n1 | > 100 | > 100 µM |  | > 100 | > 100 |  |  | > 100 µM | 
34 | CCOc1ccccc1NC(=O)CCC(=O)NN |  | > 100 µM | > 100 µM | > 100 |  |  |  | > 100 µM | 
35 | COC(=O)C1=C(C(=O)OC)C(C(=O)OC)C(C(=O)OC)C(C(=O)OC)(C(=O)OC)C(C(=O)OC)=C1C(=O)OC (configuration not stated) | 31 | 35.9 µM | 44 µM | 6.98 | 25.6 | 31.2 µM | 23.2 µM |  | 
36 | c1cc2ccc1C1NCCCN1CCN1CCCNC1c1ccc(cc1)C1NCCCN1CCN1CCCNC21 (configuration not stated) | > 100 | > 100 µM |  | > 100 | > 100 |  | > 100 µM |  | 
37 | O=C(O)C(CS)N=Cc1nc(-c2ccccc2)oc1O (configuration not stated) |  | > 100 µM | > 100 µM | > 100 | > 100 |  | > 100 µM |  | 
38 | CN1C=C(C(N)=O)C2CC(O)[C@@](NC(=O)CS(N)(=O)=O)(C(=O)O)C2C1 (some centres not stated) | > 100 | > 40.9 µM | 8.68 µM | 52.7 | 15.8 |  | 7.38 µM | 9.7 µM | 
